The test concerns the target PPIL4 with GFP-CRBN-DDB1∆B (Homo sapiens, UniProt Q8WUA2+Q96SW2). The experiment in a line: TR-FRET ternary complex formation. The test is classed as binding.

Chain of PPIL4 with GFP-CRBN-DDB1∆B (Q96SW2 whole entry): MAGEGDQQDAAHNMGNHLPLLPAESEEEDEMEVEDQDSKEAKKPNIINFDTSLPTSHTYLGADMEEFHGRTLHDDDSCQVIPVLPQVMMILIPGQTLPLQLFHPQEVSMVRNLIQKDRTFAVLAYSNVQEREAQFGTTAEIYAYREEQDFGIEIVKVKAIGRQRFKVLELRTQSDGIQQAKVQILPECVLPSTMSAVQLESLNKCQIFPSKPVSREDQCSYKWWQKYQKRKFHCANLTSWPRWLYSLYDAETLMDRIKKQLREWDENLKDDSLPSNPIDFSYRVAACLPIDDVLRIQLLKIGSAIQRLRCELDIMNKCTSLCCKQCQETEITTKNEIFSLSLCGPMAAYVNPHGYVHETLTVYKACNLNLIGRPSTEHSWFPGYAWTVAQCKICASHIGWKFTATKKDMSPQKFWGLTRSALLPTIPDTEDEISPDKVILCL
Chain of PPIL4 with GFP-CRBN-DDB1∆B (Q8WUA2 whole entry): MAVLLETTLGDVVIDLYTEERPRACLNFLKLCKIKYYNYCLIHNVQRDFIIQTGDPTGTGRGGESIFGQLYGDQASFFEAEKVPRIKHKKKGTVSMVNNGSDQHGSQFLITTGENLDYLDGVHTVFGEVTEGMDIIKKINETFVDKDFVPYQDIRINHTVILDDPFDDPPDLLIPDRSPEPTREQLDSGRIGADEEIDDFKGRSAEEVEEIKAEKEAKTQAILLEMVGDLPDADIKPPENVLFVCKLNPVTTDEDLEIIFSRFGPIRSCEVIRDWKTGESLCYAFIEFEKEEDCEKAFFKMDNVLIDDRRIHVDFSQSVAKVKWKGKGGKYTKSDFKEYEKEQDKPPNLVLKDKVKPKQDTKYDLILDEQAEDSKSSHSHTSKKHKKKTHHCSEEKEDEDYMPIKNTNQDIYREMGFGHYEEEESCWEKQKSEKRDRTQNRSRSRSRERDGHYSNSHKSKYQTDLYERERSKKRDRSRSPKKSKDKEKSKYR
Chain of PPIL4 with GFP-CRBN-DDB1∆B (Q16531 1-395 partner): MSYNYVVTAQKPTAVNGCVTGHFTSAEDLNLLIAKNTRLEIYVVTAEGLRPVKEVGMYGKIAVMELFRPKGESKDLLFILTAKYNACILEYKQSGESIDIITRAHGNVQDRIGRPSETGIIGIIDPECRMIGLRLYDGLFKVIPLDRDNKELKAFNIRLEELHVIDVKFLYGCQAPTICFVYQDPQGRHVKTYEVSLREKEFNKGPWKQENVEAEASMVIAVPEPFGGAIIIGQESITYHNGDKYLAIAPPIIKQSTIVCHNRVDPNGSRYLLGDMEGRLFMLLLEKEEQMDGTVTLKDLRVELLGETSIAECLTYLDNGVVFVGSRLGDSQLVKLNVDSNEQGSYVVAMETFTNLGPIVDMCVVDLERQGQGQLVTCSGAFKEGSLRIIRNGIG
Chain of PPIL4 with GFP-CRBN-DDB1∆B (Q16531 706-1140 partner): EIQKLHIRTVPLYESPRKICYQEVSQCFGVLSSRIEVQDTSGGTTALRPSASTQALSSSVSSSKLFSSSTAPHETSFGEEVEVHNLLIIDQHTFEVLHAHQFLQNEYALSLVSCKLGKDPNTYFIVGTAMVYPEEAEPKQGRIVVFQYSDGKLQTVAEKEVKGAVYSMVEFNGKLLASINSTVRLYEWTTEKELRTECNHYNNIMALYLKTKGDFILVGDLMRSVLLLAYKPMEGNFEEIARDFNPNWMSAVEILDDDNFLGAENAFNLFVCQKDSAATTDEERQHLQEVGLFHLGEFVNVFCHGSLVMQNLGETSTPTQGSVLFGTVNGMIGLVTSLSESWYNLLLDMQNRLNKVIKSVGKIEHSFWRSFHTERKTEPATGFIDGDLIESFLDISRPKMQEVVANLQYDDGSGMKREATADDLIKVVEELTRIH

Turning to `COc1cscc1-c1cn([C@H]2CCC(=O)NC2=O)nn1` [FPFT-2216], the EC50 is 1.05 µM.

Source of the values: publication PMC12289921 (Nature Communications, 2025).
